Where two headings read alike, the source gives them in different places. Where a SMILES comes first, the peptide text is derived from it. [ ]: non-standard residue; d: D form. Orn = NCCC[C@H](N)C(=O)O
Legend:
[1] = Displacement of dansyl-polymyxin from LPS; type: binding, P. aeruginosa; conditions: read-out: LPS binding affinity: peptide concentration to displace 50% of dansyl-polymyxin B from LPS; Tables 1, 4, 7
How it was run: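 Peptides titrated into 3 μg/mL P. aeruginosa LPS with 2.5 μM dansyl-polymyxin (~90% site saturation) in 5 mM sodium HEPES, pH 7.0; fluorescence decrease recorded. I50 (50% probe displacement) taken from the x-intercept of a double-reciprocal plot of percent inhibition versus inhibitor concentration.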

C. xeroses = type: cell-based, Corynebacterium xerosis
How it was run: (§1)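 Antimicrobial activity is measured by a liquid-broth assay in LB at 37 °C overnight, starting from 5×10^5 CFU/mL. Values are minimal inhibitory concentrations, i.e. the lowest concentration that stops growth.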

P. aeruginosa H187 = type: cell-based, Pseudomonas aeruginosa; conditions: for Minimum Inhibitory Concentration (activity): H187
How it was run: (§2)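 Liquid-broth microdilution: overnight LB cultures at 37 °C, diluted to a final inoculum of 5×10^5 CFU/mL with serial peptide dilutions, incubated overnight at 37 °C. MIC (μg/ml) is the lowest concentration that inhibited growth. Therapeutic index is the concentration giving complete hemolysis at 4 h divided by the MIC.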

human erythrocytes = experiment: Hemolytic activity; type: cell-based
Protocol: Serial dilutions of the peptides in saline were prepared in round bottom microtitre plates using 100 μL volumes. Red blood cells were diluted with saline to 1/25 packed volume of cells and 50 μL added to each well. Plates were incubated with rocking at 37° C., and the concentration required for complete lysis determined visually after 4 h.

S. aureus SAP0017 = type: cell-based, Staphylococcus aureus
How it was run: as §2

S. aureus K147 = type: cell-based, Staphylococcus aureus
How it was run: as §2

P. aeruginosa H188 = type: cell-based, Pseudomonas aeruginosa; conditions: for Minimum Inhibitory Concentration (activity): H188
How it was run: as §1

S. epidermidis = type: cell-based, Staphylococcus epidermidis
How it was run: as §1

E. faecalis = type: cell-based, Enterococcus faecalis
How it was run: as §1

E. coli UB1005 = type: cell-based, Escherichia coli; conditions: for Minimum Inhibitory Concentration (activity): UB1005
How it was run: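 Liquid-broth rather than agar method. Organisms: clinical isolates (C. albicans, S. epidermidis), environmental C. xerosis, wild-type E. coli UB1005.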

E. coli DC2 = type: cell-based, Escherichia coli; conditions: for Minimum Inhibitory Concentration (activity): DC2
How it was run: as §2

C. Albicans = type: cell-based, Candida albicans
How it was run: as §1

S. typhinurium C610 = type: cell-based, Salmonella typhinurium
How it was run: as §1

S. typhinurium C587 = type: cell-based, Salmonella typhinurium
How it was run: as §1

B. subtilis = type: cell-based, Bacillus subtilis
How it was run: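 Liquid-broth microdilution: overnight LB cultures diluted and added to serial peptide dilutions at final 5×10^5 CFU/mL, incubated overnight at 37 °C. MIC is the lowest concentration inhibiting growth; C. albicans a clinical isolate, S. epidermidis clinical, C. xerosis environmental.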

[2] = test system: gram negative microorganisms; type: cell-based
Excerpt: (§3) The following bacterial strains were utilized: Escherichia coli UB1005 (wt) and its antibiotic supersusceptible derivative DC2 (Clark, 1984); Excherichia coli SC9251 and its polymixin B rasistant mutant pmrA SC9252 (Peterson, et al., 1987) Pseudomonas aeruginosa H187 (wt) (Angus, et al., 1987) and its antibiotic-sensitive derivative H188 (Zimmerman, W, Antimicrob. Agents Chemother. 18: 94-100, 1980); methicillin sensitive Staphylococcus aureus K147 (Kreiswirth, et al., 1983); Staphylococcus aureus SAP0017, a methicillin resistant clinical isolate from Dr. A. Chow (University of British Columia); Bacillus subtilis, an environmental wt lab strain. Enterococcus faecalis are ATCC 29212 cells and Staphylococcus epidermidis was a clinical isolate from Dr. D. Speert (University of British Columbia). Antifungal activity was tested using a clinical lab isolate of Candida albicans. Salmonella typhinurium C57 and C610 (Fields, P.I., et al., Science 243: 1059-1062 (1989) Corynebacterium xerosis was an environmental isolate (University of British Columbia).
(§4) It is now apparent that agar-based assays severely underestimate antifungal activity as well as activity against gram negative microorganisms (Kondejewski, et al., 1996). Consequently, in the studies reported herein, a liquid-broth method was used to measure the antibiotic properties of the peptides. […] Briefly, cells were grown overnight at 37° C. in LB and diluted in the same medium. Serial dilutions of antibiotics were added to the microtitre plates in a volume of 100 μL followed by 10 μL of bacteria to give a final inoculum of 5×10^5 CFU/mL. Plates were incubated at 37° C. overnight and MICs determined as the lowest antibiotic concentration that inhibited growth.
The results from antimicrobial and hemolytic assays are combined to provide a “Therapeutic Index” (TI) for each peptide with respect to individual microorganisms. As reported herein, the TI is calculated as the hemolytic activity divided by the antimicrobial activity. The TI thus is a measure of specificity of the particular peptide for microbial membranes as opposed to human blood cell membranes. In the present studies, antimicrobial activities are reported as minimum inhibitory concentrations (MIC)—the lowest concentration of peptide (μg/ml) found to inhibit growth of the particular microbe. Hemolytic activity is reported as the concentration of peptide that effected complete lysis of blood cells after four hours. Thus, in the context of the present invention high TI values indicate microbial specificity and relative lack of toxicity.

E. coli SC9251 = experiment: MIC, liquid-broth microtitre dilution; type: cell-based, Escherichia coli; conditions: unit from Table 10
Excerpt: as §3, §4

E. coli SC9252 = experiment: MIC, liquid-broth microtitre dilution; type: cell-based, Escherichia coli; conditions: unit from Table 10
Excerpt: as §3, §4

SMILES	IC50 [1] [µM]	Minimum Inhibitory Concentration (activity) (C. xeroses) [µg/mL]	Minimum Inhibitory Concentration (activity) (P. aeruginosa H187) [µg/mL]	Hemolytic activity: peptide concentration for 100% lysis of human erythrocytes (human erythrocytes) [µg/mL]	Minimum Inhibitory Concentration (activity) (S. aureus SAP0017) [µg/mL]	Minimum Inhibitory Concentration (activity) (S. aureus K147) [µg/mL]	Minimum Inhibitory Concentration (activity) (P. aeruginosa H188) [µg/mL]	Minimum Inhibitory Concentration (activity) (S. epidermidis) [µg/mL]	Minimum Inhibitory Concentration (activity) (E. faecalis) [µg/mL]	Minimum Inhibitory Concentration (activity) (E. coli UB1005) [µg/mL]	Minimum Inhibitory Concentration (activity) (E. coli DC2) [µg/mL]	Minimum Inhibitory Concentration (activity) (C. Albicans) [µg/mL]	Minimum Inhibitory Concentration (activity) (S. typhinurium C610) [µg/mL]	Minimum Inhibitory Concentration (activity) (S. typhinurium C587) [µg/mL]	Minimum Inhibitory Concentration (activity) (B. subtilis) [µg/mL]	further results
CC(C)C[C@@H]1NC(=O)[C@H](CCCCN)NC(=O)[C@H](C)NC(=O)[C@@H]2CCCN2C(=O)[C@@H](Cc2ccc(O)cc2)NC(=O)[C@H](CC(C)C)NC(=O)[C@H](CCCCN)NC(=O)[C@H](C)NC(=O)[C@H](CCCCN)NC(=O)[C@H](CC(C)C)NC(=O)[C@@H]2CCCN2C(=O)[C@@H](Cc2ccc(O)cc2)NC(=O)[C@H](C)NC(=O)[C@@H](CCCCN)NC1=O [V3/A3]	163	3.1	75	>800	>200	>200	18	50	>200	12.5	9	50	62	35	>200	–
C[C@@H]1NC(=O)[C@H](CCCCN)NC(=O)[C@H](C)NC(=O)[C@@H]2CCCN2C(=O)[C@@H](Cc2ccc(O)cc2)NC(=O)[C@H](C)NC(=O)[C@@H](CCCCN)NC(=O)[C@H](C)NC(=O)[C@H](CCCCN)NC(=O)[C@H](C)NC(=O)[C@@H]2CCCN2C(=O)[C@@H](Cc2ccc(O)cc2)NC(=O)[C@H](C)NC(=O)[C@H](CCCCN)NC1=O [V3L3/A6]	291	200	>200	>800	>200	>200	75	>200	>200	>200	>200	400	>200	>200	>200	–
CC(C)C[C@@H]1NC(=O)[C@H](CCCCN)NC(=O)[C@H](C(C)C)NC(=O)[C@H](CCCCN)NC(=O)[C@@H]2CCCN2C(=O)[C@@H](Cc2ccc(O)cc2)NC(=O)[C@H](CCCCN)NC(=O)[C@H](CC(C)C)NC(=O)[C@H](CCCCN)NC(=O)[C@H](C(C)C)NC(=O)[C@@H](CCCCN)NC(=O)[C@@H]2CCCN2C(=O)[C@@H](Cc2ccc(O)cc2)NC(=O)[C@H](CCCCN)NC1=O [GS14invK1]	43	6.2	12.5	>800	>200	>200	9	100	>200	25	25	200	62	150	>200	–
CC(C)C[C@@H]1NC(=O)[C@H](CCCCN)NC(=O)[C@H](C(C)C)NC(=O)[C@H](CCCCN)NC(=O)[C@@H]2CCCN2C(=O)[C@@H](Cc2ccc(O)cc2)NC(=O)[C@H](CCCCN)NC(=O)[C@H](CC(C)C)NC(=O)[C@H](CCCCN)NC(=O)[C@H](C(C)C)NC(=O)[C@H](CCCCN)NC(=O)[C@@H]2CCCN2C(=O)[C@@H](Cc2ccc(O)cc2)NC(=O)[C@H](CCCCN)NC1=O [GS14inv]	14	0.8	12.5	>800	200	>200	6.2	25	200	12.5	0.8	25	3.1	50	>200	–
CC(C)C[C@@H]1NC(=O)[C@H](CCCN)NC(=O)[C@H](C(C)C)NC(=O)[C@@H]2CCCN2C(=O)[C@@H](Cc2ccccc2)NC(=O)[C@H](CC(C)C)NC(=O)[C@H](CCCN)NC(=O)[C@H](C(C)C)NC(=O)[C@@H]2CCCN2C(=O)[C@@H](Cc2ccccc2)NC1=O [GS, cyclo(Val-Orn-Leu-D-Phe-Pro)2, reference compound] (cyclo(V[Orn]L[dF]PV[Orn]L[dF]P))	295	–	25	12.5	–	–	6.2	–	–	9	3.1	–	9	18	–	Antibiotic activity (Table 11, ring analogs) (P. aeruginosa H187; P. aeruginosa H187, unit from Table 10): 25 μg/ml; MIC against gram-negative organisms, particularly E. coli and P. aeruginosa [2]: 3 to 12.5 µg/mL; Antibiotic activity (Table 11, ring analogs) (P. aeruginosa H188; P. aeruginosa H188, unit from Table 10): 16 μg/ml; Antibiotic activity (Table 11, ring analogs) (E. coli SC9251): 13 μg/ml; Antibiotic activity (Table 11, ring analogs) (E. coli SC9252): 5 μg/ml; Antibiotic activity (Table 11, ring analogs) (E. coli UB1005; E. coli UB1005, unit from Table 10): 19 μg/ml; Antibiotic activity (Table 11, ring analogs) (E. coli DC2; E. coli DC2, unit from Table 10): 9 μg/ml; Minimum Inhibitory Concentration (activity) (C. Albicans; C. Albicans): 6.2 µg/mL

— US6358921B1, “Antimicrobial peptide compositions and method” (priority 1996, dated 2002)
